Test results as given in article PMC10819767, “An ADAM10 Exosite Inhibitor Is Efficacious in an In Vivo Collagen-Induced Arthritis Model” (Pharmaceuticals, 2024).
Where two headings read alike, the source gives them in different places.

Columns and labels:
[1] = test system: multiple cell lines; design: method as in PubChem Assay IDs 1794763-1794787, 19, 20; conditions: 10 µM and up to 100 µM in some cases; ref PubChem Assay IDs 1794763-1794787, 19, 20; cited from earlier work
[2] = test system: adrenergic (ADRB2); design: method as in PMID 34817776; conditions: cited from earlier work
[3] = test system: TNFα; assay: RA serum marker ELISA, TNFα, CIA mice; assay type: in vivo, C57 BL/6 mice
Procedure: The sample size for therapeutic evaluation was calculated using power analysis based on experimental data from similar studies. In a two-sided test and setting the α value at 0.05 and desired power at 0.95, the sample size turned out to be 5 per group. We also expected deaths during the experiments; therefore, we used the formula Nt = N/1-q, where Nt is the number of mice initially used, N is the number required at the end of the study, and q is the proportion of attrition, which is generally 10%. Thus, at the end of the study period, we expected to have data from at least 6 mice per group, which is enough to attain statistical significance if it exists. Data were analyzed using a one-way ANOVA followed by Dunnett’s test compared with the vehicle control. At the end of the study, the mice were anesthetized and sacrificed using CO2 euthanasia. The hind paws of the mice were subjected to a histopathological examination, and the serum was analyzed for CRP, TNF-α, IL-6, and IL-10, as described in the below sections.
RA serum marker analysis. Blood was collected from the tail vein, and 100 µL was used for the assays. All assays were conducted using the manufacturer’s instructions for the respective assay kits. The following assay kits were purchased: Mouse TNF-α GENLISA™ ELISA (Krishgen BioSystems cat#KB2145, Mumbai, India), Mouse IL-10 GENLISA™ ELISA (Krishgen BioSystems cat#KB2072), Mouse hsC-Reactive Protein, hs-CRP GENLISA™ ELISA (Krishgen BioSystems cat#KLM0318), Mouse IL-6 GENLISA™ ELISA (Krishgen BioSystems cat#KB2068).

[4] = Pharmacokinetics in plasma and synovial fluid after oral gavage; assay type: in vivo, Sprague Dawley male rats; conditions: rat; for Cmax / AUC(0-inf) / AUC(0-t) / Tmax: male, Sprague Dawley; for Cmax: po, 10 mg/kg
Procedure: Pharmacokinetics of CID 3117694 in Sprague Dawley male rats. The CID 3117694 structure was confirmed using H1 NMR (Figure S1), and it was determined to be >95% pure via HPLC (Figure S2). To determine if CID 3117694 can be used in in vivo RA efficacy model studies, we conducted an in vivo pharmacokinetic (PK) study. CID 3117694 was formulated in 10% DMSO, 40% PEG400, 30% PG, and 20% H2O at 2 mg/mL and administered via oral gavage to Sprague Dawley male rats at 10 mg/kg. Blood and synovial fluid were collected at 15 min, 30 min, 1, 2, 4, 8, and 24 h and quantitated using LC/MS. PK parameters were calculated using WinNonLin 8.3.4 software.
Pharmacokinetics of CID 3117694. All animal studies were conducted in accordance with NSU IACUC guidelines. Study protocol #2021.04.DM2 was approved using NSU IACUC before the commencement of the studies. CID 3117694 was formulated in 10% DMSO, 40% PEG400, 30% PG, and 20% H2O at 2 mg/mL and administered via an intragastric (ig) gavage to six Sprague Dawley male rats at 10 mg/kg. The animals were anesthetized using isoflurane. Blood and synovial fluid were collected at 15 min, 30 min, 1 h, 2 h, 4 h, 8 h, and 24 h after the administration of CID 3117694. Synovial fluid (SF) was collected using a 23-gauge needle connected to a mini peristaltic pump via perfusion tubing. Sterile saline was infused at a constant rate of 100 μL/min^−1. After the infusion of 100 μL of the vehicle (sterile saline), the outflow tubing was connected to the 25-gauge needle to minimize pressure build-up within the joint space. The fluid was infused and withdrawn at a constant rate until a 250 μL basal sample was collected in a 1.5 mL centrifuge tube. Samples were immediately frozen at −20 °C. Blood was collected using a 25 G needle directly from the heart. The samples were prepared for LC-MS/MS analysis using the acetonitrile protein precipitation technique. Briefly, blank plasma and subject samples (plasma and SF samples) were retrieved from the deep freezer and allowed to thaw. The calibration curve standards (10 to 10,000 μg/mL of CID 3117694) and quality control samples were prepared using blank plasma. The thawed samples were vortexed to ensure the complete mixing of the contents. A total of 50 µL of each sample was transferred to the vials, and 200 µL of an Internal Standard (IS, telmisartan) mixed with acetonitrile was added to all the samples and vortexed. Samples were kept on the shaker for 5 min to ensure complete mixing of contents. The samples were centrifuged at 4000 rpm and 20 °C for 10 min, and the supernatant was transferred into auto-injector vials and loaded into the auto-sampler. A total of 5 µL was injected onto the API-4500 Q TRAP LC-MS/MS system. The samples were separated on a Phenomenex, Synergi C18 4.6 mm × 50 mm, 4 µm HPLC column using a 10 mM ammonium acetate + 0.1% Formic acid buffer as solvent A and 100% Acetonitrile as solvent B. PK parameters were quantitated using WinNonLin (Certara, Princeton, NJ, USA).

[5] = test system: OPRK1; design: method as in PMID 34817776; conditions: cited from earlier work
[6] = test system: cardiac ion channel hERG; design: method as in PubChem AID 1511; conditions: ref PubChem AID 1511, cited from earlier work
[7] = test system: OPRM1; design: method as in PMID 34817776; conditions: cited from earlier work
[8] = synovial fluid, 10 mg/kg oral gavage

COc1cccc(C(=O)NNC(=O)C(=O)Nc2ccc(C)c(Cl)c2)c1 [CID 3117694]
effect on cellular viability [1]: no effect | activity against ADRB2 [2]: inactive | TNFα blood level vs healthy control ([3]; CID 3117694 50 mg/kg/day, indomethacin 2.5 mg/kg): decreased the markers to the level of the healthy control | concentration of TNFα in the blood of arthritic mice ([3]; all tested doses (10, 30, 50 mg/kg), vs vehicle control): lowers | Cmax ([4]; plasma, plasma, 10 mg/kg oral gavage, read-out: Cmax): 6640 ng/mL | Cmax ([4]; plasma, plasma, 10 mg/kg oral gavage, read-out: Cmax, Concentration Plasma): 18.4 µM | Cmax ([4]; plasma, plasma, 10 mg/kg oral, read-out: Cmax in plasma): 18.4 µM | Cmax ([4]; synovial fluid, synovial fluid (SF), 10 mg/kg oral gavage, read-out: Cmax): 307 ng/mL | Cmax ([4]; synovial fluid, synovial fluid, 10 mg/kg oral gavage, read-out: Cmax, Concentration SF): 0.849 µM | Cmax ([4]; synovial fluid, synovial fluid, 10 mg/kg oral, read-out: Cmax in SF): 0.849 µM | AUC(0-inf) ([4]; plasma, 10 mg/kg oral gavage): 173000 ng·h/mL | AUC(0-t) ([4]; plasma, 10 mg/kg oral gavage): 33100 ng·h/mL | Tmax ([4]; plasma, 10 mg/kg oral gavage): 1 h | AUC(0-inf) [4, 8]: 1120 ng·h/mL | AUC(0-t) [4, 8]: 1100 ng·h/mL | Tmax [4, 8]: 1 h | concentration at the 24 h time point ([4]; 10 mg/kg ig gavage, 24 h): below the limit of quantitation (LOQ) | oral bioavailability (in words) ([4]; 10 mg/kg oral): orally bioavailable | time present in the blood at a steady-state concentration ([4]; 10 mg/kg oral): at least 8 h | activity against OPRK1 [5]: inactive | effect on hERG with pro-arrhythmic agents (in words) ([6]; no EC50 value reported): cardioprotective | hERG inhibition (in words) [6]: not an hERG inhibitor | activity against OPRM1 [7]: inactive
